In patent publication US8734787B2, “Drug delivery system” (Erydel S.p.A., priority 2009, dated 2014):

Legend:
erythrocytes [1] = test: Literature: distribution of FK506 in blood and RBC binding capacity; format: in vitro ADME; details: calculated
[2] = 10-12 hours post-dose; cited from earlier work
erythrocytes [3] = details: cited from earlier work
[4] = Preliminary binding studies rFKBP12-FK506 (Dot Blot); details: 2.5, 5, 10 μg/well protein
Method: the ability of 6His-FKBP12 to bind the FK506 ligand was assessed by a slightly modified Dot Blot analysis. Briefly, 6His-FKBP12 in native conditions was dot-blotted onto a 0.2 μm nitrocellulose membrane at increasing concentrations (2.5, 5, 10 μg/well). Successively, the membrane was subjected to a single incubation step with a solution of Tacrolimus-horseradish peroxidase conjugate (PRO-Trac™ II Tacrolimus 5× Conjugate, DiaSorin, Stillwater, Minn., USA) to allow FKBP12-Tacrolimus binding.

human erythrocytes = test: Loading of recombinant FKBP12 into human erythrocytes (cell recovery, corpuscular indices); details: at the three tested concentrations (20, 40 and 80 μM)
Method: recombinant FKBP12 was encapsulated into human erythrocytes by means of a procedure of hypotonic dialysis, isotonic resealing and “reannealing” as previously described [Magnani M 1989]. In particular, human red blood cells were obtained from fresh blood collected in heparin from healthy donors and washed with physiologic solution containing Hepes 10 mM (pH 7.4), NaCl 154 mM and Glucose 5 mM to remove leukocytes and platelets. Recovered RBC were re-suspended at 70% haematocrit in physiologic solution, the suspension aliquoted in 3 tubes and rFKBP12 added at increasing concentrations (20, 40, 80 μM/tube). Each erythrocyte suspension was dialysed in dialysis tube with 3.5 kDa cut-off for 90 minutes at 4° C. against 50 volumes of hypotonic solution 60 mOsm containing NaH2PO4 10 mM, NaHCO3 10 mM pH 7.4, glucose 20 mM, GSH 3 mM and ATP 2 mM. At the end of the dialysis step, RBC suspensions were collected and allowed to equilibrate at 37° C. for 5 minutes under gentle stirring. […] RBC corpuscolar indices MCV, Mean Corpuscular Volume, MCH, Mean Corpuscular Haemoglobin and MCHC, Mean Corpuscular Haemoglobin Concentration) were evaluated for both loaded and un-loaded cells at the end of the procedure.

Row | FK506 binding capacity for native RBC (erythrocytes [1]) | Compound | therapeutic window [2] | binding capacity of RBC (erythrocytes [3]) | fraction in blood associated with erythrocytes (erythrocytes [3]) | fraction in blood associated with lymphocytes (erythrocytes [3]) | fraction in blood associated with plasma (erythrocytes [3]) | ability to bind the FK506 ligand [4] | haemolytic effect (human erythrocytes)
1 | 0.4 μg/ml RBC 40% Ht | C=CC[C@@H]1/C=C(\C)C[C@H](C)C[C@H](OC)[C@H]2O[C@@](O)(C(=O)C(=O)N3CCCC[C@H]3C(=O)O[C@H](/C(C)=C/[C@@H]3CC[C@@H](O)[C@H](OC)C3)[C@H](C)[C@@H](O)CC1=O)[C@H](C)C[C@@H]2OC (relative stereo) [FK506, 3S-[3R*[E(1S*,3S*,4S*)],4S*,5R*,8S*,9E,12R*,14R*,15S*,-16R*,18S*, 19S*,26aR*]]-5,6,8,11,12,13,14,15,16,17,18,19,24,25,26,26a-hexadecahydro-5,19-dihydroxy-3-[2-(4-hydroxy-3-methoxycyclohexyl)-1-methylethenyl]-14,16-dimethoxy-4,10,12,18-tetramethyl-8-(2-propenyl)-15,19-epoxy-3H-pyrido[2,1-c][1,4]oxaazacyclotricosine-1,7,20,21(4H,23H)-tetrone mono-hydrate] | 5-20 ng/ml whole blood | around 440 ng/ml of blood | about 85% | 0.46% | 14% |  | 
2 |  | recombinant FKBP12: N-terminal His-tagged recombinant form of human 12-kDa FK506 Binding Protein expressed in E. coli BL21(DE3) |  |  |  |  |  | able to bind Tacrolimus in a specific and dose-dependent manner | does not appear haemolytic
